According to US12421249B2, “Inhibitors of APOL1 and methods of using same” (Vertex Pharmaceuticals Incorporated, priority 2020, dated 2025):

What was measured:
APOL1 G1 = target: T1, APOL1 G1 (Homo sapiens, UniProt O14791, I384M/S342G); test: Trypanosoma brucei brucei Lysis Assay Using APOL1 Recombinant Protein (AlamarBlue viability readout); type: cell-based; details: Trypanosome Assay; for IC50: IP50 = IC50 for cell proliferation, read-out: Trypanosome Assay IP50; for Emax: read-out: Trypanosome Assay Max Activity (%)
T1 sequence (O14791 28-398 S342G/I384M): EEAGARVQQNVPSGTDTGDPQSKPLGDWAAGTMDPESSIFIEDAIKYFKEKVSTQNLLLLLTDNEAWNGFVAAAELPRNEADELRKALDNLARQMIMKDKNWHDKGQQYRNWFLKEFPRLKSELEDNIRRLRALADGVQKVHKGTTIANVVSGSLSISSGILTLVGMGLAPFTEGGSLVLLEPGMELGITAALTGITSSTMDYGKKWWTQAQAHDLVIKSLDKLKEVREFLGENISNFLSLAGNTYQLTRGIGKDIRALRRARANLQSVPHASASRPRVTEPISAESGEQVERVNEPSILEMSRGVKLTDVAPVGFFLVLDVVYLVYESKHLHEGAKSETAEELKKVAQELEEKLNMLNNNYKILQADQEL
Description: Trypanosoma brucei brucei is a blood stream parasite to which human, gorillas, and baboons are immune due to the presence of the APOL1 protein in their HDL particles. The protein is uptaken by the parasite via the TbHpHb receptor located in its flagellar pocket and is bonded by the Hpr protein contained in the HDL particles which triggers the receptor endocytosis by the parasite.
Following endocytosis, the formed vesicle containing the HDL particle matures from early to late endosome, and subsequently to lysosome. The concomitant pH change in the lumen of the vesicle triggers the insertion of the APOL1 protein into the membrane of the late endosome/lysosome and hereby triggers lysosomal membrane permeabilization and as a further downstream event, trypanosome lysis. Trypanosoma brucei brucei is sensitive to lysis by all three APOL1 variants (G0, G1, and G2).
The Trypanosoma brucei brucei lysis assay is a lysis assay of the parasite using recombinant APOL1 protein variant followed by a fluorescent detection method of viability by the addition of AlamarBlue reagent to the assay well, a general metabolic redox indicator (AlamarBlue assay).
Briefly, the AlamarBlue active compound, resazurin, a blue, water soluble, non-toxic and cell permeable molecule, which can be followed by absorbance, is reduced by various metabolic pathways into resorufin, a red compound which can be followed by either absorbance or fluorescence. The assay allows the calculation of the percent viability (percent of living Trypanosomes remaining in each well) at the end of a lysis relative to the untreated condition by interpolation of fluorescent values (FLU) on a standard curve with a known amount of seeded trypanosome/well.
Trypanosoma brucei brucei (ATCC, Cat. No. PRA-382)
• Lister 427 VSG 221 bloodstream form.
Equipment • E1-Clip Tip pipette 12 channel adjustable 2-125 μL, Cat. No. 4672070BT • ThermoFisher MultiDrop 384, Cat. No. 5840300 • Multidrop • Agilent Bravo, Cat. No. G5409A • Bravo • SpectraMax M5 Assay Ready Plates (ARPs) • ARPs comes in two formats: • […] final top concentration with a 2.5 fold dilution down. • […] final top concentration with a 3 fold dilution down. • Both have a 10 point Dose response. • 0.1% DMSO final in the Black Assay Plate. • Compounds are diluted 1000 fold in the Black Assay Plate. • Each plate is designed for 14 compounds in duplicate. • In the final Black Assay Plate: • Column 1: Media only (no APOL1) (100% viable) • Column 2-23: 0.05 μg/mL APOL1 (˜EC90) (10% viable with APOL1) • Column 24: 0.1 μg/mL APOL1 (EC100) (Approx. […] Step 2, Day 4 • Centrifuge at 800×g for 5 minutes at room temperature. • Resuspend in 1 mL media. • Make a 1:25 fold dilution (10 μL/240 μL media). • Count on a hemocytometer (after adding parasites). • Let sit for 1-2 minutes for the parasites to settle. • Count should be approximately 100 viable motile parasites/16 grid or approximately 25×10^6 parasites/flask. • Passage the parasites by adding 1×10^6 parasites/T75 flask in 20 mL media. • Passage the parasites by adding 2.33×10^6 parasites/T175 flask in 46.6 mL media. • For every T75 flask should make enough for approximately 1.5×384 well assay plates. • For every T175 flask should make enough for approximately 3.8×384 well assay plates. Step 3, Day 6 • Centrifuge at 800×g for 5 minutes. • Resuspend in 3 mL assay media (No phenol red, no FBS) per 75 starting flask. • Resuspend in 7 mL assay media (No phenol red, no FBS) per 175 flask • Make a 1:25 fold dilution. • Count by hemocytometer. • Every T75 flask set up should have approximately 75×10^6 parasites/flask (verify doubling time=8.7 hours±1 hour). • Every T175 flask set up should have approximately 175×10^6 parasites/flask (verify doubling time=8.7 hours±1 hour). • Require 46×10^6 parasites per 384 well plate (at 120,000 parasites per well). […]

APOL1 = target: T2, APOL1 (Homo sapiens, UniProt O14791); test: Multi-Tox Assay (MultiTox-Fluor Multiplex Cytotoxicity Assay in tet-inducible APOL1 T-REx-HEK293 cells; Table 46 does not say which APOL1 variant G0/G1/G2); type: cell-based; details: APOL1 variant not given; for IC50: IP50 = IC50 for cell proliferation
T2 sequence (O14791 1-398 S342G/I384M): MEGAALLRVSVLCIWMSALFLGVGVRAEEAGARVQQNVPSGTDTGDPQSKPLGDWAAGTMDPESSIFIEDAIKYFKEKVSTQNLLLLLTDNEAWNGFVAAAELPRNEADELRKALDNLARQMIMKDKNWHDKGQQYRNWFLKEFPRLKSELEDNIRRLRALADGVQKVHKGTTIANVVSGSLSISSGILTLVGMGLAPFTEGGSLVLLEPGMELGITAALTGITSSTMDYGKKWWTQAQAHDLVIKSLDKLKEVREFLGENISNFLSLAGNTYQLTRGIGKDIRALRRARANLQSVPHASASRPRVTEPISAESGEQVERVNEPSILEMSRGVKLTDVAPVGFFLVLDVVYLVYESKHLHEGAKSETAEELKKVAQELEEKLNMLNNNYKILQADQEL

SMILES | IC50 (APOL1 G1) | Emax (APOL1 G1) | IC50 (APOL1) | IC90 (APOL1) | Multi-Tox Assay Max Activity (%) (APOL1)
C[C@H]1C[C@@]2(C[C@@H](c3ccc(S(N)(=O)=O)cc3F)N1)OCCc1cc(Cl)sc12 (racemic) [Compound 78] | < 0.05 µM | 102% | < 0.05 µM | – | –
C[C@H]1C[C@@]2(C[C@@H](c3cocn3)N1)OCCc1cc(Cl)sc12 (racemic) [Compound 79] | < 0.05 µM | 97.5% | < 0.05 µM | – | –
C[C@H]1C[C@@]2(C[C@@H](c3ccc(=O)n(C)c3)N1)OCCc1cc(Cl)sc12 (racemic) [Compound 80] | < 0.05 µM | – | < 0.05 µM | – | –
C[C@H]1C[C@@]2(C[C@@H](c3ccccc3)N1)OCCc1cc(Cl)sc12 (racemic) [Compound 81] | < 0.05 µM | – | < 0.05 µM | – | –
Cc1ncc([C@@H]2C[C@]3(C[C@H](C)N2)OCCc2cc(Cl)sc23)cn1 (racemic) [Compound 82] | < 0.05 µM | 106% | < 0.05 µM | – | –
C[C@H]1C[C@@]2(C[C@@H](c3ccccn3)N1)OCCc1cc(Cl)sc12 (racemic) [Compound 83] | < 0.05 µM | 111% | < 0.05 µM | – | –
COc1ccc2[nH]c([C@@H]3C[C@]4(C[C@H](C)N3)OCCc3cc(Cl)sc34)cc2n1 (racemic) [Compound 84] | < 0.05 µM | 112% | < 0.05 µM | – | –
C[C@H]1C[C@@]2(C[C@@H](c3c[nH]cn3)N1)OCCc1cc(Cl)sc12 (racemic) [Compound 85] | < 0.05 µM | – | < 0.05 µM | – | –
C[C@H]1C[C@@]2(C[C@@H](c3cc(C4CC4)no3)N1)OCCc1cc(Cl)sc12 (racemic) [Compound 87] | < 0.05 µM | – | < 0.05 µM | – | –
C[C@H]1C[C@@]2(C[C@@H](c3cc(-c4ccccn4)n[nH]3)N1)OCCc1cc(Cl)sc12 (racemic) [Compound 88] | < 0.05 µM | 98% | < 0.05 µM | < 0.05 µM | 99.3%
C[C@H]1C[C@@]2(C[C@@H](c3ccc(N(C)C)nc3)N1)OCCc1cc(Cl)sc12 (racemic) [Compound 89] | < 0.05 µM | 101% | < 0.05 µM | – | –
COCCn1cc([C@@H]2C[C@]3(C[C@H](C)N2)OCCc2cc(Cl)sc23)cn1 (racemic) [Compound 90] | < 0.05 µM | 104% | < 0.05 µM | – | –
C[C@H]1C[C@@]2(C[C@@H](c3cccnn3)N1)OCCc1cc(Cl)sc12 (racemic) [Compound 92] | < 0.05 µM | 103% | < 0.05 µM | – | –
C[C@H]1C[C@@]2(C[C@@H](c3ccnnc3)N1)OCCc1cc(Cl)sc12 (racemic) [Compound 93] | 0.05 to 0.5 µM | 112% | < 0.05 µM | – | –
Cc1ncc([C@@H]2C[C@]3(C[C@H](C)N2)OCCc2cc(Cl)sc23)o1 (racemic) [Compound 94] | < 0.05 µM | 104% | < 0.05 µM | – | –
C[C@H]1C[C@@]2(C[C@@H](c3cnc(NC(C)(C)CO)nc3)N1)OCCc1cc(Cl)sc12 (racemic) [Compound 95] | 0.05 to 0.5 µM | 106% | < 0.05 µM | – | –
C[C@H]1C[C@@]2(C[C@@H](c3ccon3)N1)OCCc1cc(Cl)sc12 (racemic) [Compound 96] | < 0.05 µM | 104% | < 0.05 µM | – | –
Cc1cc([C@@H]2C[C@]3(C[C@H](C)N2)OCCc2cc(Cl)sc23)nn1C (racemic) [Compound 98] | < 0.05 µM | 110% | < 0.05 µM | – | 99.0%
COc1ccc([C@@H]2C[C@]3(C[C@H](C)N2)OCCc2cc(Cl)sc23)cc1O (racemic) [Compound 99] | < 0.05 µM | 102% | < 0.05 µM | – | 99.0%
C[C@H]1C[C@@]2(C[C@@H](c3cnn(C4CCOCC4)c3)N1)OCCc1cc(Cl)sc12 (racemic) [Compound 100] | < 0.05 µM | 99% | < 0.05 µM | – | –
C[C@H]1C[C@@]2(C[C@@H](c3cnccn3)N1)OCCc1cc(Cl)sc12 (racemic) [Compound 101] | 0.05 to 0.5 µM | 114% | < 0.05 µM | – | 100.0%
CCOc1cc([C@@H]2C[C@]3(C[C@H](C)N2)OCCc2cc(Cl)sc23)ccc1O (racemic) [Compound 102] | < 0.05 µM | 112% | < 0.05 µM | – | 99.8%
C[C@H]1C[C@@]2(C[C@@H](c3cnn(CC(C)(CO)CO)c3)N1)OCCc1cc(Cl)sc12 (racemic) [Compound 103] | 0.05 to 0.5 µM | 118% | < 0.05 µM | – | –
Cc1nc([C@@H]2C[C@]3(C[C@H](C)N2)OCCc2cc(Cl)sc23)co1 (racemic) [Compound 104] | 0.05 to 0.5 µM | 100% | < 0.05 µM | – | 99.3%
COc1ccccc1-c1ncc([C@@H]2C[C@]3(C[C@H](C)N2)OCCc2cc(Cl)sc23)cn1 (racemic) [Compound 105] | < 0.05 µM | 72% | < 0.05 µM | – | 99.3%
COCc1cc([C@@H]2C[C@]3(C[C@H](C)N2)OCCc2cc(Cl)sc23)no1 (racemic) [Compound 106] | < 0.05 µM | 107% | < 0.05 µM | – | –
CCOc1ccc([C@@H]2C[C@]3(C[C@H](C)N2)OCCc2cc(Cl)sc23)cc1O (racemic) [Compound 107] | < 0.05 µM | 92.5% | < 0.05 µM | – | 99.7%
Cc1cc([C@@H]2C[C@]3(C[C@H](C)N2)OCCc2cc(Cl)sc23)ccc1O (racemic) [Compound 108] | < 0.05 µM | 94.5% | < 0.05 µM | – | 99.0%
C[C@H]1C[C@@]2(C[C@@H](c3cccc(C(N)=O)c3)N1)OCCc1cc(Cl)sc12 (racemic) [Compound 109] | 0.05 to 0.5 µM | 100% | < 0.05 µM | – | 100.0%
COc1nccc([C@@H]2C[C@]3(C[C@H](C)N2)OCCc2cc(Cl)sc23)n1 (racemic) [Compound 110] | 0.05 to 0.5 µM | 115% | < 0.05 µM | – | –
